{"source": "paper PMC11359809", "about": "“Probing the molecular basis for signal transduction through the Zinc-Activated Channel (ZAC)” (Biochemical pharmacology, 2021)", "key": {"WT hα1 GlyR": {"biological_target": "T1, WT hα1 GlyR (Homo sapiens, UniProt P23415)", "T1 construct": "expressed in transfected cells; host or cells: Xenopus oocytes injected with cRNA (pUNIV vector)", "T1 sequence (P23415 29-457)": "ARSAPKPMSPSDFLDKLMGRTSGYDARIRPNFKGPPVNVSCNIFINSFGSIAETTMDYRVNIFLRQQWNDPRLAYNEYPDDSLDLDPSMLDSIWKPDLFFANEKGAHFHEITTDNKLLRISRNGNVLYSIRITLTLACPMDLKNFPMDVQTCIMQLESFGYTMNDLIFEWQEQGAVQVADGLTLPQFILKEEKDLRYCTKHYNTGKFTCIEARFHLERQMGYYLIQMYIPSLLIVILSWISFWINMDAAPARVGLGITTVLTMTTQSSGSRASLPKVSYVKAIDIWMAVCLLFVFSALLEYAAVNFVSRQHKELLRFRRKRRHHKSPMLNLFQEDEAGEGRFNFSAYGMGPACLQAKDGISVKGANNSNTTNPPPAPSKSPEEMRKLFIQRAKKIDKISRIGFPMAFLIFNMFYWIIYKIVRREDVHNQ", "type": "cell-based", "description": "(§1) The construction of the ZAC-pUNIV plasmid (encoding for the human WT ZAC that contains a Thr in position 128) has been described previously. The m5-HT3A and hα1 GlyR cDNAs were subcloned from their original vectors into pUNIV (Addgene, Watertown, MA) using NheI and EcoRI as restriction enzymes. […] The C-terminus modifications in these four chimeras were introduced in their cDNAs in the same way. Point mutations were introduced in cDNAs by use of the QuikChange mutagenesis kit (Stratagene, San Diego, CA). The validity and absence of unwanted mutations in the constructed cDNAs was verified by DNA sequencing (Macrogen Europe, Amsterdam, The Netherlands).\nAll cDNAs used for cRNA synthesis were inserted in the pUNIV vector. The cDNAs were linearized and subsequently transcribed and capped using the mMessage mMachine T7 RNA transcription kit (Ambion, Waltham, MA). […] Oocytes were incubated in a sterile modified Barth’s solution [88 mM NaCl, 1 mM KCl, 15 mM HEPES (pH 7.5), 2.4 mM NaHCO3, 0.41 mM CaCl2, 0.82 mM MgSO4, 0.3 mM Ca(NO3)2, 100 U/ml penicillin and 100 μg/ml streptomycin] at 16–18 °C. Based on experience gained with WT ZAC in a recent study, all TEVC recordings were performed two days after cRNA injection.\nOn the day of the TEVC recording, all compound dilutions were prepared in a saline solution [115 mM NaCl, 2.5 mM KCl, 10 mM MOPS (pH 7.5), 1.8 mM CaCl2, 0.1 mM MgCl2], and pH was adjusted to 7.5 (if needed). Oocytes were placed in a recording chamber continuously perfused with this saline solution, and the compounds were applied in the perfusate. Both voltage and current electrodes were agar-plugged with 3 M KCl with a resistance of 0.2–2.0 MΩ. Oocytes were voltage-clamped at −50 mV (except in the studies of the chimeras and their parent receptors where they were clamped at −60 mV, section 3.1), by a Gene Clamp 500B amplifier, and current signals were digitized by a Digidata 1322A (both from Axon Instruments, Union City, CA). Currents were recorded using pCLAMP 10 (Molecular Devices, Sunnyvale, CA). The recordings were performed at room temperature.\nIn all recordings, compounds or compound combinations were applied in the bath until the peak current decayed to a steady state (up to 30 s). […] The antagonist properties of compounds were determined by pre-application of the compound to the perfusate for 30 s followed by co-application of the compound and the agonist. In all recordings, washes of 1–5 min were executed between the ligand applications, the length of the washes depending on the agonist concentrations used and on the return to baseline current amplitude.\nAnalysis of the data from the TEVC recordings were performed using Clampfit software version 10.5 (Molecular Devices, Crawley, UK) and GraphPad Prism version 7.0c (GraphPad Software, La Jolla, CA). Unless otherwise stated, the inward currents induced by agonists in oocytes were normalized to the maximal response elicited by a specific agonist (agonist Imax) on each oocyte. Concentration-response and concentration-inhibition curves were fitted in GraphPad Prism by nonlinear regression using the equation for sigmoidal dose-response with variable slope. Each data point represents the mean ± S.E.M. value of recordings performed on at least five oocytes in total from at least two different batches. […] The null hypothesis was rejected at P < 0.05, and the differences between the means were analyzed by Tukey’s multiple comparisons test."}, "hα1-Gly/ZAC": {"system": "hα1-Gly/ZAC", "experiment": "TEVC in oocytes expressing hα1-Gly/ZAC chimera", "type": "cell-based, human", "details": "1 mM Gly; n = 5", "experimental": "(§2) The recordings were performed at room temperature.\n(§3) Analysis of the data from the TEVC recordings were performed using Clampfit software version 10.5 (Molecular Devices, Crawley, UK) and GraphPad Prism version 7.0c (GraphPad Software, La Jolla, CA). Unless otherwise stated, the inward currents induced by agonists in oocytes were normalized to the maximal response elicited by a specific agonist (agonist Imax) on each oocyte. Concentration-response and concentration-inhibition curves were fitted in GraphPad Prism by nonlinear regression using the equation for sigmoidal dose-response with variable slope. Each data point represents the mean ± S.E.M. value of recordings performed on at least five oocytes in total from at least two different batches. For the data where statistical analysis was performed, a one-way ANOVA was used. The null hypothesis was rejected at P < 0.05, and the differences between the means were analyzed by Tukey’s multiple comparisons test.\n(§4) Initially, we constructed four chimeric subunits fusing the ZAC ECD or TMD-ICD with the complementary domains from either the m5-HT3A or the hα1 GlyR subunit: ZAC/m5-HT3A, m5-HT3A/ZAC, ZAC/hα1-Gly and hα1-Gly/ZAC (Fig. 1A). […] (Fig. 1A)."}, "hα1-Gly/ZAC-II": {"system": "hα1-Gly/ZAC-II", "details": "Gly 1 mM; data not shown", "description": "as §1\nAll cDNAs used for cRNA synthesis were inserted in the pUNIV vector. […]\nOn the day of the TEVC recording, all compound dilutions were prepared in a saline solution [115 mM NaCl, 2.5 mM KCl, 10 mM MOPS (pH 7.5), 1.8 mM CaCl2, 0.1 mM MgCl2], and pH was adjusted to 7.5 (if needed). […] Currents were recorded using pCLAMP 10 (Molecular Devices, Sunnyvale, CA). […]\nIn all recordings, compounds or compound combinations were applied in the bath until the peak current decayed to a steady state (up to 30 s). […] The antagonist properties of compounds were determined by pre-application of the compound to the perfusate for 30 s followed by co-application of the compound and the agonist. […]"}, "WT ZAC": {"biological_target": "T2, WT ZAC (Homo sapiens, UniProt Q401N2, A152T)", "T2 construct": "expressed in transfected cells; host or cells: Xenopus oocytes injected with cRNA (pUNIV vector)", "T2 sequence (Q401N2 26-412 A152T)": "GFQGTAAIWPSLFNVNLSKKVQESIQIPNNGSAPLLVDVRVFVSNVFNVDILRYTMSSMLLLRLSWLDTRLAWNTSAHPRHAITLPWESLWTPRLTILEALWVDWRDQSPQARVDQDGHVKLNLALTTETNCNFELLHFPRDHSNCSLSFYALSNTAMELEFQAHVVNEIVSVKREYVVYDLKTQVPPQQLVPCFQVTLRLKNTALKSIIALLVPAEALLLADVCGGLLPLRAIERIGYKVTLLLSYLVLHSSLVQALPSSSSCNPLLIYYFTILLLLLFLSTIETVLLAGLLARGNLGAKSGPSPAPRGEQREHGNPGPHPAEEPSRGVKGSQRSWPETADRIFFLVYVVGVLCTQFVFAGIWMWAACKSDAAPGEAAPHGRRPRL", "experiment": "TEVC in Xenopus oocytes expressing WT ZAC", "type": "cell-based", "details": "PTX at concentrations up to 100 μM; Zn^2+ 1 mM", "experimental": "as §2, §3"}, "ZAC/hα1-Gly": {"system": "ZAC/hα1-Gly", "experiment": "TEVC in oocytes expressing ZAC/hα1-Gly chimera", "type": "cell-based, human", "experimental": "as §2, §3, §4"}}, "data": [{"compound": "NCC(=O)O", "note": "[Gly, glycine]", "values": [{"measurement": "Imax (current amplitude evoked by saturating agonist)", "setting": "WT hα1 GlyR", "result": "2.02 ± 0.24", "unit": "μA"}, {"measurement": "Δtpeak-to-plateau", "setting": "WT hα1 GlyR", "result": "52 ± 5.9", "unit": "s"}, {"measurement": "Δtstart-to-peak", "setting": "WT hα1 GlyR", "result": "2.7 ± 0.3", "unit": "s"}, {"measurement": "I1 mM Gly ± S.E.M.", "setting": "hα1-Gly/ZAC", "result": "−0.0062 ± 0.0022", "unit": "μA"}, {"measurement": "agonist-evoked current", "setting": "hα1-Gly/ZAC-II", "result": "did not induce significant responses"}]}, {"compound": "picrotoxin [PTX]", "values": [{"measurement": "inhibition of Zn^2+ EC90-mediated signalling", "setting": "WT ZAC", "result": "did not inhibit"}, {"measurement": "current during 30-s preincubation of antagonist", "setting": "WT hα1 GlyR; PTX preincubation", "result": "no such outward currents"}, {"measurement": "IC50", "setting": "WT hα1 GlyR; inhibition of Gly EC90 (100 μM)-elicited responses, read-out: estimated IC50", "result": "< 1000", "unit": "nM"}, {"measurement": "current during 30-s preincubation of antagonist", "setting": "ZAC/hα1-Gly; PTX preincubation", "result": "substantial outward currents"}, {"measurement": "IC50", "setting": "ZAC/hα1-Gly; inhibition of Zn^2+ EC90 (10 μM)-induced currents, read-out: estimated IC50", "result": "> 1000", "unit": "nM"}]}]}
